# Molecular target: T1, KCNQ2/3 channels (Homo sapiens, UniProt O43525+O43526)
# T1 construct: expressed in transfected cells; host or cells: CHO-K1 cells
# Test: Fluorescence assay using a voltage-sensitive dye (fluorimetry)
# Type: cell-based
# Settings: for EC50: CHO-K1 cells expressing KCNQ2/3 channels; for Emax at 1 µM: 50 μM retigabine = 100%, CHO-K1 cells expressing KCNQ2/3, read-out: Fluorimetry % efficacy at 1 μM (50 μM retigabine = 100%)
# Procedure: […] CHO-K1 cells expressing KCNQ2/3 channels are cultivated adherently at 37° C., 5% CO2 and 95% humidity in cell culture bottles (e.g. 80 cm^2 TC flasks, Nunc) with DMEM-high glucose (Sigma Aldrich, D7777) including 10% FCS (PAN Biotech, e.g. 3302-P270521) or alternatively MEM Alpha Medium (1×, liquid, Invitrogen, #22571), 10% foetal calf serum (FCS) (Invitrogen, #10270-106, heat-inactivated) and the necessary selection antibiotics.
# Before being seeded out for the measurements, the cells are washed with a 1×DPBS buffer without Ca^2+/Mg^2+ (e.g. Invitrogen, #14190-094) and detached from the bottom of the culture vessel by means of Accutase (PAA Laboratories, #L11-007) (incubation with Accutase for 15 min at 37° C.). The cell count then present is determined using a CASY™ cell counter (TCC model, Scharfe System) in order subsequently to apply 20,000 to 30,000 cells/well/100 μl of the described nutrient medium, depending on density optimisation for the individual cell line, to 96-well measuring plates of the Corning™ CeIIBIND™ type (flat clear-bottom black polystyrene microplates, #3340). Incubation is then carried out for one hour at room temperature, without gassing or adjusting the humidity, followed by incubation for 24 hours at 37° C., 5% CO2 and 95% humidity.
# The voltage-sensitive fluorescent dye from the Membrane Potential Assay Kit (Red™ bulk format part R8123 for FLIPR, MDS Analytical Technologies™) is prepared by dissolving the contents of a vessel of Membrane Potential Assay Kit Red Component A in 200 ml of extracellular buffer (ES buffer, 120 mM NaCl, 1 mM KCl, 10 mM HEPES, 2 mM CaCl2, 2 mM MgCl2, 10 mM glucose; pH 7.4). After removal of the nutrient medium, the cells are washed with 200 μl of ES buffer, then covered with a layer of 100 μl of the dye solution prepared above and incubated for 45 min at room temperature with exclusion of light.
# The fluorescence measurements are carried out with a BMG Labtech FLUOstar™, BMG Labtech NOVOstar™ or BMG Labtech POLARstar™ instrument (525 nm excitation, 560 nm emission, bottom-read mode). After incubation of the dye, 50 μl of the substances to be tested in the desired concentrations, or 50 μl of ES buffer for control purposes, are introduced into separate cavities of the measuring plate and incubated for 30 min at room temperature whilst being shielded from light. The fluorescence intensity of the dye is then measured for 5 min and the fluorescence value F1 of each well is thus determined at a given, constant time. 15 μl of a […] KCl solution ([…]) are then added to each well. The change in fluorescence is subsequently measured until all relevant measured values have been obtained (mainly 5-30 min). At a given time after KCl application, a fluorescence value F2 is determined, in this case at the time of the fluorescence peak.
# For calculation, the fluorescence intensity F2 is compared with the fluorescence intensity F1, and the agonistic activity of the target compound on the potassium channel is determined therefrom. F2 and F1 are calculated as follows: […]
# is determined by adding to the reaction batch only the buffer solution instead of the substance to be tested, determining the value F1K of the fluorescence intensity, adding the potassium ions as described above and measuring a value F2K of the fluorescence intensity. Then F2K and F1K are calculated as follows: […]
# Calculations of EC50 values are carried out with the aid of Prism v4.0 software (GraphPad Software™).
Structure (SMILES),EC50 [nM],Emax at 1 µM [%]
CCSc1nc2cc(C(F)(F)F)ccc2c(C)c1C(=O)NCc1cccc(C)c1 [compound 82],219,108
"CCSc1nc2cc(C(F)(F)F)ccc2c(Cl)c1C(=O)NCc1cccc(F)c1 [compound 122, 4-Chloro-2-ethylsulfanyl-N-[(3-fluorophenyl)-methyl]-7-(trifluoromethyl)-quinoline-3-carboxamide]",65,171
CCSc1nc2cc(C(F)(F)F)ccc2c(C)c1C(=O)NCc1cccc(C(C)(C)C)c1 [compound 56],67,97
CCSc1nc2cc(C(F)(F)F)ccc2c(C)c1C(=O)NCCC1CCCC1 [compound 53],256,73
"O=C(NCc1cccs1)c1cc2ccccc2nc1SCCS(=O)(=O)c1ccccc1 [compound 5, 2-[2-(Phenylsulfonyl)ethylthio]-N-(2-thienyl-methyl)-3-quinoline carboxamide]",2660,98
CCSc1nc2cc(F)ccc2c(C)c1C(=O)NCc1ccc(F)cc1 [compound 106],216,143
CCSc1nc2cc(C(F)(F)F)ccc2c(C)c1C(=O)NCc1nnco1 [compound 45],–,23
CCSc1nc2cc(C(F)(F)F)ccc2c(C)c1C(=O)NCCCC(C)C [compound 57],150,205
CCSc1nc2cc(C(F)(F)F)ccc2cc1C(=O)NCC(C)(C)C [compound 90],842,53
CCSc1nc2cc(C(F)(F)F)ccc2c(C)c1C(=O)NCc1ccc(O)cc1 [compound 119],2750,72
CCSc1nc2cc(C(F)(F)F)ccc2c(C)c1C(=O)NCc1cc(F)cc(F)c1 [compound 87],144,159
CCSc1nc2cccc(F)c2c(C)c1C(=O)NCc1ccc(F)cc1 [compound 124],–,8
CSc1nc2cc(C(F)(F)F)ccc2c(C)c1C(=O)NCc1ccc(F)cc1 [compound 115],136,150
Cc1c(C(=O)NCc2cccc(F)c2)c(SC2CCCCC2)nc2cc(C(F)(F)F)ccc12 [compound 52],64,102
CCSc1nc2cc(C(F)(F)F)ccc2c(C)c1C(=O)NCc1ccc(Cl)cc1 [compound 80],148,135
CCSc1nc2cc(C(F)(F)F)ccc2c(C)c1C(=O)NCc1cccc(C(F)(F)F)c1 [compound 38],76,142
CSc1nc2cc(C(F)(F)F)ccc2c(C)c1C(=O)NCc1cccs1 [compound 88],212,154
O=C(NCCC1CCCCC1)c1cc2ccccc2nc1SCCS(=O)(=O)c1ccccc1 [compound 22],–,15
CCSc1nc2ccc(OC)cc2c(C)c1C(=O)NCc1ccc(F)cc1 [compound 102],–,14
O=C(NCc1cccs1)c1cc2ccccc2nc1SCCCc1ccccc1 [compound 4],144,168
O=C(NCc1cccs1)c1cc2ccccc2nc1SCCSc1ccccc1 [compound 21],119,30
CCSc1nc2cc(C(F)(F)F)ccc2c(C)c1C(=O)NCc1ccc(C)o1 [compound 111],86,178
O=C(NCc1cccs1)c1cc2ccccc2nc1SCCSc1ccc(F)cc1 [compound 24],–,27
CCSc1nc2cc(C(F)(F)F)ccc2c(C)c1C(=O)NCCCC1CCCC1 [compound 54],162,229
CCSc1nc2cc(C(F)(F)F)ccc2c(C)c1C(=O)NCc1ccccc1OC [compound 84],–,25
"CCCCCSc1nc2ccccc2cc1C(=O)NCc1cccs1 [compound 1, 2-(Pentylthio)-N-(2-thienylmethyl)-3-quinoline carboxamide]",744,143
Cc1ccc(CCCSc2nc3ccccc3cc2C(=O)NCc2cccs2)cc1 [compound 20],–,64

# Source: patent publication US20100234372A1, “SUBSTITUTED 2-MERCAPTOQUINOLINE-3-CARBOXAMIDES AS KCNQ2/3 MODULATORS” (GRUNENTHAL GMBH, priority 2009, published 2010)
